US7371762B2, “3-substituted 6,7-dihydroxytetrahydroisoquinoline derivatives for use as antibacterial agents” (Arpida AG, priority 2001, dated 2008)
Converted amounts (≈) assume the structure as drawn.

Columns and labels:
Assay in all cases: Minimal inhibitory concentration (MIC), NCCLS M7-A5 procedure
Format in all cases: cell-based
[1] = test system: Escherichia coli DC2; details: read-out: Minimal inhibitory concentration (MIC) EC DC2
Method: (§1) Minimal inhibitory concentrations (MIC) were determined in accordance with the National Committee for Clinical Laboratory Standards (NCCLS) procedure [M7-A5, 2001].
(§2) The results obtained are summarized in table 1 and are expressed in jig/ml. In this table 1, EC 25922 means Escherichia coli ATCC25922, EC DC2 means Escherichia coli DC2, SA 25923 means Staphylococcus aureus ATCC25923 and SA 101 means Staphylococcus aureus 101. (ATCC=American Type Culture Collection)
(§3) M7-A5* (2001): Methods for Dilution Antimicrobial Susceptibility Tests for Bacteria that Grow Aerobically; Approved Standard—Fifth Edition American National Standard.

[2] = test system: Staphylococcus aureus ATCC25923; details: read-out: Minimal inhibitory concentration (MIC) SA 25923
Method: as §1, §2, §3

[3] = test system: Staphylococcus aureus 101; details: read-out: Minimal inhibitory concentration (MIC) SA 101
Method: as §1, §2, §3

[4] = test system: Escherichia coli ATCC25922; details: read-out: Minimal inhibitory concentration (MIC) EC 25922
Method: as §1, §2, §3

## Oc1cc2c(cc1O)CC(COc1cc(Cl)ccc1Cl)NC2 (stereo not shown) [Example 14, 3-(2,5-Dichloro-phenoxymethyl)-1,2,3,4-tetrahydro-isoquinoline-6,7-diol]
[1]
  MIC: 32 µg/mL (≈ 94.1 µM)
[2]
  MIC: 64 µg/mL (≈ 188 µM)
[3]
  MIC: 64 µg/mL (≈ 188 µM)
[4]
  MIC: 128 µg/mL (≈ 376 µM)

## Oc1cc2c(cc1O)CC(c1ccc(Sc3ccccc3)cc1)NC2 (stereo not shown) [Example 8, 3-(4-Phenylsulfanyl-phenyl)-1,2,3,4-tetrahydro-isoquinoline-6,7-diol]
[1]
  MIC: 32 µg/mL (≈ 91.6 µM)
[2]
  MIC: 8 µg/mL (≈ 22.9 µM)
[3]
  MIC: 32 µg/mL (≈ 91.6 µM)
[4]
  MIC: 64 µg/mL (≈ 183 µM)

## N#Cc1cccc(-c2ccc(C3Cc4cc(O)c(O)cc4CN3)cc2)c1 (stereo not shown) [Example 22, 4′-(6,7-Dihydroxy-1,2,3,4-tetrahydro-isoquinolin-3-yl)-biphenyl-3-carbonitrile]
[1]
  MIC: 64 µg/mL (≈ 187 µM)
[2]
  MIC: 128 µg/mL (≈ 374 µM)
[3]
  MIC: > 128 µg/mL
[4]
  MIC: > 128 µg/mL

## CC1NC(c2ccc(Oc3ccccc3)cc2)Cc2cc(O)c(O)cc21 (stereo not shown) [Example 3, 1-Methyl-3-(4-phenoxy-phenyl)-1,2,3,4-tetrahydro-isoquinoline-6,7-diol]
[1]
  MIC: 32 µg/mL (≈ 92.1 µM)
[2]
  MIC: 16 µg/mL (≈ 46.1 µM)

## Oc1cc2c(cc1O)CC(c1ccc(-c3ccc(C(F)(F)F)cc3)cc1)NC2 (stereo not shown) [Example 17, 3-(4′-Trifluoromethyl-biphenyl-4-yl)-1,2,3,4-tetrahydro-isoquinoline-6,7-diol]
[1]
  MIC: 8 µg/mL (≈ 20.8 µM)
[2]
  MIC: 4 µg/mL (≈ 10.4 µM)
[3]
  MIC: 8 µg/mL (≈ 20.8 µM)
[4]
  MIC: 64 µg/mL (≈ 166 µM)

## Oc1cc2c(cc1O)CC(c1ccc(Oc3ccccc3)cc1)NC2 (stereo not shown) [Example 1, 3-(4-Phenoxy-phenyl)-1,2,3,4-tetrahydro-isoquinoline-6,7-diol]
[1]
  MIC: 8 µg/mL (≈ 24 µM)
[2]
  MIC: 8 µg/mL (≈ 24 µM)
[3]
  MIC: 8 µg/mL (≈ 24 µM)
[4]
  MIC: 32 µg/mL (≈ 96 µM)

## Oc1cc2c(cc1O)CC(c1ccc(-c3ccccc3)cc1)NC2 (stereo not shown) [Example 12, 3-Biphenyl-4-yl-1,2,3,4-tetrahydro-isoquinoline-6,7-diol]
[1]
  MIC: 8 µg/mL (≈ 25.2 µM)
[2]
  MIC: 4 µg/mL (≈ 12.6 µM)
[3]
  MIC: 16 µg/mL (≈ 50.4 µM)
[4]
  MIC: 16 µg/mL (≈ 50.4 µM)

## Oc1ccc(-c2ccc(C3Cc4cc(O)c(O)cc4CN3)cc2)cc1 (stereo not shown) [Example 19, 3-(4′-Hydroxy-biphenyl-4-yl)-1,2,3,4-tetrahydro-isoquinoline-6,7-diol]
[1]
  MIC: 64 µg/mL (≈ 192 µM)
[2]
  MIC: 128 µg/mL (≈ 384 µM)
[3]
  MIC: 128 µg/mL (≈ 384 µM)
[4]
  MIC: > 128 µg/mL

## Oc1cc2c(cc1O)CC(c1ccc(Cl)cc1)NC2 (stereo not shown) [Example 15, 3-(4-Chloro-phenyl)-1,2,3,4-tetrahydro-isoquinoline-6,7-diol]
[1]
  MIC: 32 µg/mL (≈ 116 µM)
[2]
  MIC: 16 µg/mL (≈ 58 µM)
[3]
  MIC: 32 µg/mL (≈ 116 µM)
[4]
  MIC: 128 µg/mL (≈ 464 µM)

## Oc1cc2c(cc1O)CN(Cc1ccccc1)C(COc1ccc(Cl)cc1Cl)C2 (stereo not shown) [Example 11, 2-Benzyl-3-(2,4-dichloro-phenoxymethyl)-1,2,3,4-tetrahydro-isoquinoline-6,7-diol]
[1]
  MIC: > 128 µg/mL
[2]
  MIC: 8 µg/mL (≈ 18.6 µM)
[3]
  MIC: 8 µg/mL (≈ 18.6 µM)
[4]
  MIC: > 128 µg/mL

## Oc1cc2c(cc1O)CC(c1ccc3oc4ccccc4c3c1)NC2 (stereo not shown) [Example 7, 3-Dibenzofuran-2-yl-1,2,3,4-tetrahydro-isoquinoline-6,7-diol]
[1]
  MIC: 32 µg/mL (≈ 96.6 µM)
[2]
  MIC: 8 µg/mL (≈ 24.1 µM)
[3]
  MIC: 16 µg/mL (≈ 48.3 µM)
[4]
  MIC: 64 µg/mL (≈ 193 µM)

## Oc1cc2c(cc1O)CC(COc1ccc(Cl)c(Cl)c1)NC2 (stereo not shown) [Example 13, 3-(3,4-Dichloro-phenoxymethyl)-1,2,3,4-tetrahydro-isoquinoline-6,7-diol]
[1]
  MIC: 16 µg/mL (≈ 47 µM)
[2]
  MIC: 16 µg/mL (≈ 47 µM)
[3]
  MIC: 16 µg/mL (≈ 47 µM)
[4]
  MIC: > 128 µg/mL

## Oc1cc2c(cc1O)CC(c1ccc(Cl)cc1Cl)NC2 (stereo not shown) [Example 9, 3-(2,4-Dichloro-phenyl)-1,2,3,4-tetrahydro-isoquinoline-6,7-diol]
[1]
  MIC: 64 µg/mL (≈ 206 µM)
[2]
  MIC: 64 µg/mL (≈ 206 µM)
[3]
  MIC: 64 µg/mL (≈ 206 µM)
[4]
  MIC: 128 µg/mL (≈ 413 µM)

## Oc1cc2c(cc1O)CC(c1ccc(Br)cc1)NC2 (stereo not shown) [Example 16, 3-(4-Bromo-phenyl)-1,2,3,4-tetrahydro-isoquinoline-6,7-diol]
[1]
  MIC: 32 µg/mL (≈ 99.9 µM)
[2]
  MIC: 8 µg/mL (≈ 25 µM)
[3]
  MIC: 64 µg/mL (≈ 200 µM)
[4]
  MIC: > 128 µg/mL

## Oc1cc2c(cc1O)CC(c1ccc(-c3ccc(F)cc3F)cc1)NC2 (stereo not shown) [Example 21, 3-(2′,4′-Difluoro-biphenyl-4-yl)-1,2,3,4-tetrahydro-isoquinoline-6,7-diol]
[1]
  MIC: 8 µg/mL (≈ 22.6 µM)
[2]
  MIC: 8 µg/mL (≈ 22.6 µM)
[3]
  MIC: 8 µg/mL (≈ 22.6 µM)
[4]
  MIC: 32 µg/mL (≈ 90.6 µM)

## COc1ccc(C2Cc3cc(O)c(O)cc3CN2)c2ccccc12 (stereo not shown) [Example 4, 3-(4-Methoxy-naphthalen-1-yl)-1,2,3,4-tetrahydro-isoquinoline-6,7-diol]
[1]
  MIC: 32 µg/mL (≈ 99.6 µM)
[2]
  MIC: 32 µg/mL (≈ 99.6 µM)

## Oc1cc2c(cc1O)CN(Cc1ccccc1)C(c1ccc(Oc3ccccc3)cc1)C2 (stereo not shown) [Example 2, 2-Benzyl-3-(4-phenoxy-phenyl)-1,2,3,4-tetrahydro-isoquinoline-6,7-diol]
[1]
  MIC: 64 µg/mL (≈ 151 µM)
[2]
  MIC: 64 µg/mL (≈ 151 µM)
[3]
  MIC: 32 µg/mL (≈ 75.6 µM)
[4]
  MIC: > 128 µg/mL

## OCC1Cc2cc(O)c(O)cc2CN1 (stereo not shown) [Example 6, 3-Hydroxymethyl-1,2,3,4-tetrahydro-isoquinoline-6,7-diol]
[1]
  MIC: 32 µg/mL (≈ 164 µM)
[2]
  MIC: 16 µg/mL (≈ 82 µM)
[3]
  MIC: 16 µg/mL (≈ 82 µM)
[4]
  MIC: 64 µg/mL (≈ 328 µM)

## Oc1cc2c(cc1O)CC(c1ccc(O)c3ccccc13)NC2 (stereo not shown) [Example 5, 3-(4-Hydroxy-naphthalen-1-yl)-1,2,3,4-tetrahydro-isoquinoline-6,7-diol]
[1]
  MIC: 16 µg/mL (≈ 52.1 µM)
[2]
  MIC: 32 µg/mL (≈ 104 µM)

## CN(C)c1ccc(-c2ccc(C3Cc4cc(O)c(O)cc4CN3)cc2)cc1 (stereo not shown) [Example 18, 3-(4′-Dimethylamino-biphenyl-4-yl)-1,2,3,4-tetrahydro-isoquinoline-6,7-diol]
[1]
  MIC: 8 µg/mL (≈ 22.2 µM)
[2]
  MIC: 4 µg/mL (≈ 11.1 µM)
[3]
  MIC: 16 µg/mL (≈ 44.4 µM)
[4]
  MIC: > 128 µg/mL

## Oc1cc2c(cc1O)CC(COc1ccc(Cl)cc1Cl)NC2 (stereo not shown) [Example 10, 3-(2,4-Dichloro-phenoxymethyl)-1,2,3,4-tetrahydro-isoquinoline-6,7-diol]
[1]
  MIC: 2 µg/mL (≈ 5.88 µM)
[2]
  MIC: 8 µg/mL (≈ 23.5 µM)
[3]
  MIC: 16 µg/mL (≈ 47 µM)
[4]
  MIC: 128 µg/mL (≈ 376 µM)

## Oc1cc2c(cc1O)CC(c1ccc(-c3ccccc3O)cc1)NC2 (stereo not shown) [Example 20, 3-(2′-Hydroxy-biphenyl-4-yl)-1,2,3,4-tetrahydro-isoquinoline-6,7-diol]
[1]
  MIC: 32 µg/mL (≈ 96 µM)
[2]
  MIC: 16 µg/mL (≈ 48 µM)
[3]
  MIC: 32 µg/mL (≈ 96 µM)
[4]
  MIC: 128 µg/mL (≈ 384 µM)
